# Source: patent US20230210154A1, “SWEET PROTEIN MUTANTS FROM TRUFFLE” (MYCOTECHNOLOGY, INC., priority 2021, published 2023)
# Like-named read-outs stand apart in the source and are kept apart here. Residues, ends and D or L forms follow the SMILES beside them.
# Experiments:
# sweet taste [1] = test: Concentration-response functions for sweet taste (Opertech Bio); assay type: in vivo; conditions: for Relative to Sucrose (mM): equivalency to sucrose on a molar basis; for Relative to Sucrose (mg/ml): equivalency to sucrose on a weight basis; for EC50: half-maximal sweet taste response
# Description: Opertech Bio (Philadelphia, Pa.) performed a quantitative characterization of the concentration-dependence of the taste properties of the purified his-tagged mycodulcein (SEQ ID NO:21) obtained from E. coli as described in Example 5 and purified as described in Example 4. The sweet-taste potency and relative efficacy of mycodulcein was compared with sucrose and with other sweeteners thaumatin, rebaudioside A, and aspartame. Control standards were solutions of 200 mM sucrose, 100 mM NaCl, 0.5 mM quinine, and 10 mM citric acid. […] Each data point in the curves for mycodulcein, aspartame, thaumatin, rebaudioside A was calculated as the average across 32 replicates and averaged across 16 replicates for the sucrose curve; error bars are SEM. Points for water and sucrose controls were similarly calculated as the average across 128 and 64 replicates, respectively. Curves were fit by non-linear regression.
# The concentrations that elicit half-maximal sweet taste response (EC50s, or potencies) were derived from the nonlinear regression. […] Also provided are the equivalencies to sucrose on a molar basis and on a weight basis.
# sweet taste [2] = test: CATA time intensity of the sweet sensation, trained panel; assay type: in vivo, human
# Description: Evaluation of thaumatin, sucrose, and SEQ ID NO:21 was carried out using a CATA (click all that apply) time intensity of the sweet sensation of named analytes in water at 0.045 mg/ml for proteins and 10% sucrose. Methodology: Time Intensity Technique; Data collection software: EyeQuestion, responses recorded every 2.57 seconds; Scaling Method: a 15-point sweet scale, e.g. score 5=5% sucrose, score 10=10% sucrose; Evaluation Protocol: small volume sip, tilt and spit test. There were 3-6 panelists and 2 replicates. All samples were blinded and presented with randomized 3-digit codes. Training Strategies: An intense training on sweet scale over 6 weeks on 15-point sweet scale to confidently assign sweet values. Due to unique sweet behavioral patterns, it is necessary to train time intensity principles over 3 weeks. Samples were tasted with a stopwatch to note times and help reach a consensus. # of Panelists: 3-6, # of replications: 2. All samples were blinded and presented with randomized 3-digit codes. Statistical analysis: due to the small # of panelists, a statistical analysis cannot be performed.
# [3] = non-linear regression, read-out: EC50 (molar units)
EC50 (sweet taste [1]; [3]) [mM],EC50 (sweet taste [1]; read-out: EC50) [µg/mL],Molecule,Relative to Sucrose (mM) (sweet taste [1]),Relative to Sucrose (mg/ml) (sweet taste [1]),time to approach threshold sweetness (Intensity <1) (sweet taste [2]; 10% sucrose in water) [s],"maximum intensity (Imax) higher than sucrose (sweet taste [2]; 15 point scale, proteins 0.045 mg/ml in water vs 10% sucrose)"
0.182,53.2,COC(=O)[C@H](Cc1ccccc1)NC(=O)[C@@H](N)CC(=O)O [aspartame] (H-Asp-Phe-OMe),198,231,–,–
36,12300,OC[C@H]1O[C@@](CO)(O[C@H]2O[C@H](CO)[C@@H](O)[C@H](O)[C@H]2O)[C@@H](O)[C@@H]1O [sucrose],1,1,162,–
–,–,thaumatin,–,–,–,approximately 1 point
